{"source": "patent US5846720A", "about": "“Methods of determining chemicals that modulate expression of genes associated with cardiovascular disease” (Oncogene Science, Inc., priority 1996, dated 1998)", "key": {"[1]": {"tested_on": "beta-actin mRNA", "test": "Northern blot of actin mRNA (control)", "type": "cell-based, human", "conditions": "U5637 cells", "description": "Total cellular RNA was isolated from cells following incubation with chemicals as described above and electrophoresed in a 1% Agarose Formaldehyde gel. The RNA was transferred to Duralon-UV nylon filters (Stratagene, La Jolla, Calif.) using the manufacturer's recommended protocol. The filters were prehybridized for 4 hours (prehybridizing solution=5× SSC, 50 mM sodium pyrophosphate, 10× Denhardt's solution, 10% dextran sulfate, 7% SDS and 250 μg/ml denatured ssDNA) and then hybridized in the same solution for 16 hours at 65° C. in the presence of specific probes. The G-CSF probe was a 0.6 kb AflII to Xhol fragment which contained most of exon 5 of the human G-CSF gene. The β-actin (Oncor, Gaithersburg, Md.) probe was used as a control probe to normalize for the total amount of RNA. The probes were labeled with alpha-32P dCTP using a random primed DNA labeling kit (Amersham, Arlington, Ill.). Following hybridization, filters were washed three times at room temperature with 1× SSC, 0.13% SDS and three times at 65° C. with 0.2× SSC, 0.1% SDS. Filters were first probed with the G-CSF specific probe and then reprobed with β-actin-probe. […] Bands were excised and counted in a liquid scintillation counter (LKB, Gaithersburg, Md.), and counts obtained with the G-CSF specific probe were normalized relative to the counts obtained with the β-Actin specific probe. […]"}, "[2]": {"tested_on": "G-CSF mRNA", "test": "Northern blot of endogenous G-CSF mRNA", "type": "cell-based, human", "conditions": "U5637 cells, relative to DMSO", "description": "Total cellular RNA was isolated from cells following incubation with chemicals as described above and electrophoresed in a 1% Agarose Formaldehyde gel. The RNA was transferred to Duralon-UV nylon filters (Stratagene, La Jolla, Calif.) using the manufacturer's recommended protocol. The filters were prehybridized for 4 hours (prehybridizing solution=5× SSC, 50 mM sodium pyrophosphate, 10× Denhardt's solution, 10% dextran sulfate, 7% SDS and 250 μg/ml denatured ssDNA) and then hybridized in the same solution for 16 hours at 65° C. in the presence of specific probes. The G-CSF probe was a 0.6 kb AflII to Xhol fragment which contained most of exon 5 of the human G-CSF gene. The β-actin (Oncor, Gaithersburg, Md.) probe was used as a control probe to normalize for the total amount of RNA. The probes were labeled with alpha-32P dCTP using a random primed DNA labeling kit (Amersham, Arlington, Ill.). Following hybridization, filters were washed three times at room temperature with 1× SSC, 0.13% SDS and three times at 65° C. with 0.2× SSC, 0.1% SDS. Filters were first probed with the G-CSF specific probe and then reprobed with β-actin-probe. Exposure to x-ray film was performed overnight. Bands were excised and counted in a liquid scintillation counter (LKB, Gaithersburg, Md.), and counts obtained with the G-CSF specific probe were normalized relative to the counts obtained with the β-Actin specific probe.\nAlso shown are the effects of the solvent, DMSO, used to dissolve the chemicals and a proteinaceous positive regulator, interferon-gamma."}, "[3]": {"tested_on": "G-CSF promoter", "test": "G-CSF promoter/luciferase reporter assay (high-throughput screen I), G21 cells"}, "[4]": {"tested_on": "G-CSF mRNA", "test": "S1 nuclease protection, G-CSF mRNA", "type": "cell-based, human", "conditions": "5637 cells, 18 hours", "description": "(§1) S1 Nuclease protection assays were carried out as described in reference 118.\n(§2) To further confirm, that compounds that had been identified in a luciferase expression assay using a G-CSF specific reporter cell line would be active in inducing transcription of the endogenous G-CSF gene, cells from the parental cell line 5637 used to construct the reporter cell line were incubated with cycloheximide (25 ug/ml), DMSO (0.5%,solvent control) and low, medium and high concentrations of the compounds 542 (10, 50, 250 μM),1255 (20, 100, 500 uM), 1793(0.25, 1.2, 6.25 μM) and 1904 (20, 100 uM) for 18 hours. RNA was extracted and the concentration of G-CSF, GM-CSF and gamma-actin mRNA was determined by the S1 protection method as described in above. The positions of G-CSF GM-CSF and gamma-actin specific protected fragments are indicated (G, GM, A) at the left side of the gel (FIG. 37)."}, "[5]": {"tested_on": "GM-CSF mRNA", "test": "S1 nuclease protection, GM-CSF mRNA", "type": "cell-based, human", "conditions": "5637 cells, 18 hours", "description": "as §1, §2"}, "[6]": {"conditions": "in vivo; cited from earlier work"}, "[7]": {"tested_on": "HMGCoA reductase", "conditions": "animals, high doses; cited from earlier work"}, "[8]": {"conditions": "cited from earlier work; for decrease in serum cholesterol levels: compared with HMGCoA reductase inhibitors like lovastatin"}, "[9]": {"tested_on": "M-CSF promoter", "test": "M-CSF (CSF-1) promoter/luciferase induction, M2071, M2085, M2086", "type": "cell-based, human", "conditions": "2,000 units/ml, 16 hours, all three M-CSF clones", "description": "Human promyelocytic leukemia HL-60 cells are known to express CSF-1 (74). They were transfected with linearized pCSF1-102 (FIG. 21) and linearized PTKneo3 using electroporation as described above. Three neomycin resistant clones were generated: --M2071, M2085 and M2086. All three responded to a 16 hour incubation with 2000 units/ml interferon-gamma by a 20-fold increase of luciferase expression. M2086 was selected for use in the high throughput screen. The WI-38 human fibroblast cell line is also capable of producing CSF-1. Stable transfectants are also prepared from these for screening in a different cellular background. There is evidence for tissue-specific modulation of CSF-1 gene expression, and since the major source of the CSF-1 which stimulates the growth of macrophages at atherosclerotic plaques is unknown, screening with more than one cell line may be useful.\nPromoter induction experiments were also conducted with the GM-CSF reporter cell lines GM1073, GM1088 and GM1105, which were all shown to contain correctly inserted constructs (see above). […] Luciferase expression of clones GM1088 and GM1105 was induced by PMA 2.8 fold and 2 fold, respectively, while TNF-alpha induced both clones 2 fold. All three M-CSF clones responded to a 16-hour incubation with 2,000 units/ml Interferon-gamma by a 20-fold increase of luciferase expression from the M-CSF promoter."}}, "note": "“Also recorded” adds a separate entry of the source."}
{"molecule": "CN(C)c1ccc(C(=C2C=CC(=[N+](C)C)C=C2)c2ccc([N+](C)(C)C)cc2)cc1", "note": "[#670]", "values": [{"measurement": "effect on actin mRNA (Northern blot)", "setting": "[1]", "result": "not of actin mRNA"}, {"measurement": "effect on endogenous G-CSF mRNA (Northern blot)", "setting": "[2]", "result": "increased G-CSF mRNA production; also recorded: stimulated production of G-CSF mRNA"}, {"measurement": "activation of the G-CSF promoter (dose response)", "setting": "[3]; G21 cells", "result": "specifically activated the G-CSF promoter"}, {"measurement": "EC50", "setting": "[3]; read-out: ED50 (concentration of chemical resulting in 50% maximal stimulation), G-CSF reporter cell line G21, range over the three chemicals", "result": "5 to 70", "unit": "µM"}]}
{"molecule": "Clc1cc(Cl)cc(Br)c1", "note": "[#1255]", "values": [{"measurement": "effect on actin mRNA (Northern blot)", "setting": "[1]", "result": "not of actin mRNA"}, {"measurement": "effect on endogenous G-CSF mRNA (Northern blot)", "setting": "[2]", "result": "increased G-CSF mRNA production; also recorded: stimulated production of G-CSF mRNA"}, {"measurement": "amount of G-CSF mRNA (S1 nuclease protection)", "setting": "[4]", "result": "increased mRNA production"}]}
{"molecule": "CN(C)C(=S)SCC#N", "note": "[#1793]", "values": [{"measurement": "amount of GM-CSF mRNA (S1 nuclease protection)", "setting": "[5]", "result": "increased the amount of GM-CSF mRNA"}, {"measurement": "amount of G-CSF mRNA (S1 nuclease protection)", "setting": "[4]", "result": "increased mRNA production"}]}
{"molecule": "CC[C@H](C)C(=O)O[C@H]1C[C@@H](C)C=C2C=C[C@H](C)[C@H](CC[C@@H]3C[C@@H](O)CC(=O)O3)[C@H]21", "note": "[lovastatin]", "values": [{"measurement": "most frequently reported side effects", "setting": "[6]", "result": "Gastrointestinal disturbances, including flatulence, diarrhea, constipation and nausea"}]}
{"molecule": "CC[C@H](C)C(=O)O[C@H]1C[C@@H](C)C=C2C=C[C@H](C)[C@H](CC[C@@H]3C[C@@H](O)CC(=O)O3)[C@H]21", "note": "[mevinolin]", "values": [{"measurement": "HMGCoA reductase levels", "setting": "[7]", "result": "increased levels of HMGCoA reductase"}]}
{"molecule": "GM-CSF: colony-stimulating factor GM-CSF", "values": [{"measurement": "decrease in serum cholesterol levels", "setting": "[8]", "result": "profound decreases in serum cholesterol levels"}, {"measurement": "average decrease in serum cholesterol", "setting": "[8]; in vivo", "result": 37, "unit": "%"}]}
{"molecule": "Interferon-gamma: a proteinaceous positive regulator, interferon-gamma", "values": [{"measurement": "effect on endogenous G-CSF mRNA (Northern blot)", "setting": "[2]", "result": "increased G-CSF mRNA production"}, {"measurement": "increase of luciferase expression from the M-CSF promoter", "setting": "[9]", "result": 20, "unit": "fold"}]}
{"molecule": "CSF-1: colony-stimulating factor-1 (protein, UniProt P09603 33-554, looked up) Macrophage colony-stimulating …: EEVSEYCSHMIGSGHLQSLQRLIDSQMETSCQITFEFVDQEQLKDPVCYLKKAFLLVQDIMEDTMRFRDNTPNAIAIVQLQELSLRLKSCFTKDYEEHDKACVRTFYETPLQLLEKVKNVFNETKNLLDKDWNIFSKNCNNSFAECSSQDVVTKPDCNCLYPKAIPSSDPASVSPHQPLAPSMAPVAGLTWEDSEGTEGSSLLPGEQPLHTVDPGSAKQRPPRSTCQSFEPPETPVVKDSTIGGSPQPRPSVGAFNPGMEDILDSAMGTNWVPEEASGEASEIPVPQGTELSPSRPGGGSMQTEPARPSNFLSASSPLPASAKGQQPADVTGTALPRVGPVRPTGQDWNHTPQKTDHPSALLRDPPEPGSPRISSLRPQGLSNPSTLSAQPQLSRSHSSGSVLPLGELEGRRSTRDRRSPAEPEGGPASEGAARPLPRFNSVPLTDTGHERQSEGSFSPQLQESVFHLLVPSVILVLLAVGGLLFYRWRRRSHQEPQRADSPLEQPEGSPLTQDDRQVELPV", "values": [{"measurement": "decrease in serum cholesterol levels", "setting": "[8]", "result": "profound decreases in serum cholesterol levels"}]}
